Experimental findings from patent publication US20040191913A1, “Method of evaluation of antioxidation ability by measuring redox balance in vivo” (priority 2002, published 2004) are described below.

A short description of assay [1]: Radical removability by magnetic spin resonator (attenuation of the DMPO-OOL signal). The assay is classed as biochemical. The settings on record: 10 mM DMPO; for 50% Inhibition Concentration / IC50: DMPO-OOL signal intensity, 1 minute after start of reaction; for IC50: read-out: 50% Inhibition Concentration. As for the experimental part:
The antioxidation index is obtained by indexing the radical removability, R that is determined by the use of a magnetic spin resonator in the manner mentioned below, within a range of from 1 to 10points. The determination with a magnetic spin resonator is effected as follows: The DMPO-OOL radical resulting from trapping of a butylhydroperoxide radical by a spin trapping agent, 5,5-dimethyl-1-pyrroline-N-oxide (DMPO) is quantitatively determined by the use of a magnetic spin resonator, and a serum sample is added to the system to determine the degree of signal intensity attenuation in the system. […] Radical Removability R=[DMPO]/50% Inhibition Concentration.
Preferably, the determination with a magnetic spin resonator is effected as follows: 100 mM butylhydroperoxide, 50 μg/ml methemoglobin, 10 mM DMPO and 0.1 mM diethylenetriamine-pentaacetic acid are reacted in 10 mM phosphate buffer. One minute after the start of the reaction, the DMPO-OOL signal intensity is measured by the use of a magnetic spin resonator.

The subject of assay [2] is Leptin receptor-defective, natural diabetic db/db mice. The assay can be described thus: Animal test: 0.02% astaxanthin feed in diabetic db/db mice. The assay is classed as in vivo. An excerpt:
The quantitative determination of 8-OHdG is effected through enzyme immunoassay using a monoclonal antibody.
Leptin receptor-defective, natural diabetic db/db mice (animal model similar to human type-II diabetes) were used in the test. […] A control group of leptin receptor-defective, natural diabetic db/db mice was not given astaxanthin.

Take Catalase: the “50% Inhibition Concentration” value in assay [1] was >4,000 U/ml.
Same read-out and setting: the result for `CC1=C(/C=C/C(C)=C/C=C/C(C)=C/C=C/C=C(C)/C=C/C=C(C)/C=C/C2=C(C)CCCC2(C)C)C(C)(C)CCC1` [β-Carotene] reads over 0.2 mg/mL.
`O=C1O[C@H]([C@@H](O)CO)C(O)=C1O` [Ascorbic acid]: in assay [1], the “R (Radical Removability = [DMPO]/50% Inhibition Concentration)” value was found to be 227 and the IC50 was found to be 44 µM.
As to `CC1=C(/C=C/C(C)=C/C=C/C(C)=C/C=C/C=C(C)/C=C/C=C(C)/C=C/C2=C(C)C(=O)[C@@H](O)CC2(C)C)C(C)(C)C[C@H](O)C1=O` [Astaxanthin, astaxanthin], in assay [2] (3 months), the “8-OHdG discharge in urine (in words)” value is recorded as “significantly inhibits” and the “development of diabetic nephropathy (in words)” value is on record as “significantly retards”. Moreover, the “8-OHdG in Urine” value in assay [2] (fed for 3 months, enzyme immunoassay, p < 0.05 vs control group) is listed as 135.6 ± 41.1 ng/day. Moreover, the “Albumin in Urine” value in assay [2] (fed for 3 months, p < 0.05 vs control group) is 68.6 ± 13.4 µg/day.
`O=c1[nH]c(=O)c2[nH]c(=O)[nH]c2[nH]1` [Uric acid]: in assay [1], the “R (Radical Removability = [DMPO]/50% Inhibition Concentration)” value is recorded as 28 and the IC50 is 360 µM.
In the same order, the values of `Cc1c(C)c2c(c(C)c1O)CC[C@@](C)(CCC[C@H](C)CCC[C@H](C)CCCC(C)C)O2` [α-Tocopherol] are 14 and 700 µM.
In the same order, the values of `N[C@@H](CCC(=O)N[C@@H](CS)C(=O)NCC(=O)O)C(=O)O` [Glutathione] are 24 and 410 µM.
